This is an account of results in patent publication US11299461B2 (priority 2018, dated 2022).

By Ki is commonly meant a dissociation constant, usually derived from enzyme kinetics or from competition with a known ligand.

The assay deals with LF 263-C catalytic domain (anthrax lethal factor) (Bacillus anthracis, UniProt P15917). Put plainly: biochemical.
Chain of LF 263-C catalytic domain (anthrax lethal factor) (P15917 296-809 limits assumed): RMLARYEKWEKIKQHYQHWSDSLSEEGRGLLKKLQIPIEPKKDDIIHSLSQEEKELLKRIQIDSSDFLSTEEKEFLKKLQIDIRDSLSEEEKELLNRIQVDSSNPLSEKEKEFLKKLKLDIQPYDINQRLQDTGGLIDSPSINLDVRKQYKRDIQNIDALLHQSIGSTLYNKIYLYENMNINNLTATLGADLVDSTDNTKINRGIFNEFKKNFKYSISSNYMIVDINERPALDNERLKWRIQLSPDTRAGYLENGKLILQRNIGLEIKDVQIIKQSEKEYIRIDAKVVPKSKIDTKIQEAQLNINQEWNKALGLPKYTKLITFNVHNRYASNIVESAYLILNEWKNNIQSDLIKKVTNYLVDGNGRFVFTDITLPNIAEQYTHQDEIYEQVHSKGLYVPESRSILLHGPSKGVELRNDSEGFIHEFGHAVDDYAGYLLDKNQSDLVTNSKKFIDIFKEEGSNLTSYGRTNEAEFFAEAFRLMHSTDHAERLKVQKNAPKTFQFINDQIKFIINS

For `CC(C)[C@@H](NCCCC[C@@H](Cc1cc(Cl)c(F)c(Cl)c1)C(=O)NO)c1ccc(F)cn1` [Compound 34, (S)-2-(3,5-dichloro-4-fluorobenzyl)-6-(((R)-1-(5-fluoropyridin-2-yl)-2-methylpropyl)amino)-N-hydroxyhexanamide], affinity was put at a Ki of 0.6 nM.
With `CC(C)[C@@H](NCCCC[C@@H](Cc1cc(Cl)c(F)c(Cl)c1)C(=O)NO)c1ccc(Cl)cn1` [Compound 35, (S)-6-(((R)-1-(5-chloropyridin-2-yl)-2-methylpropyl)amino)-2-(3,5-dichloro-4-fluorobenzyl)-N-hydroxyhexanamide], the Ki came out at 0.42 nM.
For `Cc1cc(C[C@H](CCCCN[C@@H](c2ccc(F)cn2)C(C)C)C(=O)NO)cc(F)c1F` [Compound 36, (S)-2-(3,4-difluoro-5-methylbenzyl)-6-(((R)-1-(5-fluoropyridin-2-yl)-2-methylpropyl)amino)-N-hydroxyhexanamide], the Ki came out at 0.72 nM.
On to `Cc1cc(C[C@H](CCCCN[C@@H](c2ccc(Cl)cn2)C(C)C)C(=O)NO)cc(F)c1F` [Compound 37, (S)-6-(((R)-1-(5-chloropyridin-2-yl)-2-methylpropyl)amino)-2-(3,4-difluoro-5-methylbenzyl)-N-hydroxyhexanamide], for which the affinity, expressed as Ki, was 0.87 nM.
As for `COc1ccc(CN(C)CCCC[C@@H](Cc2cc(C)c(F)c(F)c2)C(=O)NO)nc1` [Compound 38, (S)-2-(3,4-difluoro-5-methylbenzyl)-N-hydroxy-6-(((5-methoxypyridin-2-yl)methyl)(methyl)amino)hexanamide], the affinity, expressed as Ki, was 4.9 nM.
In the case of `CO[C@H](C[C@H](CCCCN[C@H](CO)c1ccc(F)cn1)C(=O)NO)c1ccc(F)cc1` [Compound 39, (S)-2-((R)-2-(4-fluorophenyl)-2-methoxyethyl)-6-(((S)-1-(5-fluoropyridin-2-yl)-2-hydroxyethyl)amino)-N-hydroxyhexanamide] it was 1.7 nM.
In turn, `CCN(CCCC[C@@H](C[C@@H](OC)c1ccc(F)cc1)C(=O)NO)Cc1ccc(Cl)cn1` [Compound 40, (S)-6-(((5-chloropyridin-2-yl)methyl)(ethyl)amino)-2-((R)-2-(4-fluorophenyl)-2-methoxyethyl)-N-hydroxyhexanamide] had a Ki of 4.5 nM.
The compound `CO[C@H](C[C@H](CCCCNCc1ccc(Cl)cn1)C(=O)NO)c1ccc(F)cc1` [Compound 41, (S)-6-(((5-chloropyridin-2-yl)methyl)amino)-2-((R)-2-(4-fluorophenyl)-2-methoxyethyl)-N-hydroxyhexanamide] showed a Ki of 2.2 nM.
The compound `CO[C@H](C[C@H](CCCCN(C)Cc1ccc(Cl)cn1)C(=O)NO)c1ccc(F)cc1` [Compound 42, (S)-6-(((5-chloropyridin-2-yl)methyl)(methyl)amino)-2-((R)-2-(4-fluorophenyl)-2-methoxyethyl)-N-hydroxyhexanamide] showed a Ki of 3 nM.
For the compound `CO[C@H](C[C@H](CCCCN(C)Cc1ccc(Br)cn1)C(=O)NO)c1ccc(F)cc1` [Compound 43, (S)-6-(((5-bromopyridin-2-yl)methyl)(methyl)amino)-2-((R)-2-(4-fluorophenyl)-2-methoxyethyl)-N-hydroxyhexanamide], the affinity, expressed as Ki, was 12.5 nM.
`CCc1cc(Cl)cnc1CN(C)CCCC[C@@H](C[C@@H](OC)c1ccc(F)cc1)C(=O)NO` [Compound 44, (S)-6-(((5-chloro-3-ethylpyridin-2-yl)methyl)(methyl)amino)-2-((R)-2-(4-fluorophenyl)-2-methoxyethyl)-N-hydroxyhexanamide]: the inhibition constant (Ki) was determined as 6.7 nM.
The compound `CO[C@H](C[C@H](CCCCN(C)Cc1cccc(C)n1)C(=O)NO)c1ccc(F)cc1` [Compound 45, (S)-2-((R)-2-(4-fluorophenyl)-2-methoxyethyl)-N-hydroxy-6-(methyl((6-methylpyridin-2-yl)methyl)amino)hexanamide] displayed an inhibition constant Ki of 15.8 nM.
In turn, `CO[C@H](C[C@H](CCCCN(C)Cc1cc(C)ccn1)C(=O)NO)c1ccc(F)cc1` [Compound 46, (S)-2-((R)-2-(4-fluorophenyl)-2-methoxyethyl)-N-hydroxy-6-(methyl((4-methylpyridin-2-yl)methyl)amino)hexanamide] returned an inhibition constant Ki of 14 nM.
In the case of `CO[C@H](C[C@H](CCCCN(CCO)Cc1ncc(F)cc1Cl)C(=O)NO)c1ccc(F)cc1` [Compound 47, (S)-6-(((3-chloro-5-fluoropyridin-2-yl)methyl)(2-hydroxyethyl)amino)-2-((R)-2-(4-fluorophenyl)-2-methoxyethyl)-N-hydroxyhexanamide] it was 53.5 nM; in that of `CO[C@H](C[C@H](CCCCN[C@@H](c1ccc(F)cn1)C(C)C)C(=O)NO)c1ccc(F)cc1` [Compound 48, (S)-2-((R)-2-(4-fluorophenyl)-2-methoxyethyl)-6-(((R)-1-(5-fluoropyridin-2-yl)-2-methylpropyl)amino)-N-hydroxyhexanamide], 0.62 nM.
Take `COc1ccc([C@H](NCCCC[C@@H](C[C@@H](OC)c2ccc(F)cc2)C(=O)NO)C(C)C)nc1` [Compound 49, (S)-2-((R)-2-(4-fluorophenyl)-2-methoxyethyl)-N-hydroxy-6-(((R)-1-(5-methoxypyridin-2-yl)-2-methylpropyl)amino)hexanamide]: the affinity, expressed as Ki, was 2.7 nM.
To `CO[C@H](C[C@H](CCCCN[C@@H](c1ccc(F)c(C)n1)C(C)C)C(=O)NO)c1ccc(F)cc1` [Compound 50, (S)-6-(((R)-1-(5-fluoro-6-methylpyridin-2-yl)-2-methylpropyl)amino)-2-((R)-2-(4-fluorophenyl)-2-methoxyethyl)-N-hydroxyhexanamide] belongs 2.7 nM; to `CO[C@H](C[C@H](CCCCN[C@@H](c1ccc(Cl)cn1)C(C)C)C(=O)NO)c1ccc(F)cc1` [Compound 51, (S)-6-(((R)-1-(5-chloropyridin-2-yl)-2-methylpropyl)amino)-2-((R)-2-(4-fluorophenyl)-2-methoxyethyl)-N-hydroxyhexanamide], 0.54 nM; to `CO[C@H](C[C@H](CCCCN[C@@H](c1ncc(F)cc1F)C(C)C)C(=O)NO)c1ccc(F)cc1` [Compound 52, (S)-6-(((R)-1-(3,5-difluoropyridin-2-yl)-2-methylpropyl)amino)-2-((R)-2-(4-fluorophenyl)-2-methoxyethyl)-N-hydroxyhexanamide], 2.1 nM.
For the compound `CO[C@H](C[C@H](CCCCN[C@@H](c1ncc(Cl)cc1Cl)C(C)C)C(=O)NO)c1ccc(F)cc1` [Compound 53, (S)-6-(((R)-1-(3,5-dichloropyridin-2-yl)-2-methylpropyl)amino)-2-((R)-2-(4-fluorophenyl)-2-methoxyethyl)-N-hydroxyhexanamide], the Ki came out at 6.2 nM.
With `CC[C@@H](NCCCC[C@@H](C[C@@H](OC)c1ccc(F)cc1)C(=O)NO)c1ncc(Cl)cc1Cl` [Compound 54, (S)-6-(((R)-1-(3,5-dichloropyridin-2-yl)propyl)amino)-2-((R)-2-(4-fluorophenyl)-2-methoxyethyl)-N-hydroxyhexanamide], the affinity corresponds to a Ki of 2.4 nM.
Take `CO[C@H](C[C@H](CCCCN[C@H](C)c1ccc(Cl)cn1)C(=O)NO)c1ccc(F)cc1` [Compound 55, (S)-6-(((R)-1-(5-chloropyridin-2-yl)ethyl)amino)-2-((R)-2-(4-fluorophenyl)-2-methoxyethyl)-N-hydroxyhexanamide]: affinity was put at a Ki of 1.6 nM.
Compound `CC[C@@H](NCCCC[C@@H](C[C@@H](OC)c1ccc(F)cc1)C(=O)NO)c1ccc(Cl)cn1` [Compound 56, (S)-6-(((R)-1-(5-chloropyridin-2-yl)propyl)amino)-2-((R)-2-(4-fluorophenyl)-2-methoxyethyl)-N-hydroxyhexanamide] registered a Ki of 0.79 nM.
Compound `CCN(CCCC[C@@H](C[C@@H](OC)c1ccc(F)c(C)c1)C(=O)NO)Cc1ccc(Cl)cn1` [Compound 57, (S)-6-(((5-chloropyridin-2-yl)methyl)(ethyl)amino)-2-((R)-2-(4-fluoro-3-methylphenyl)-2-methoxyethyl)-N-hydroxyhexanamide] returned a Ki of 2.8 nM.
The compound `CO[C@H](C[C@H](CCCCN[C@@H](c1ccc(Cl)cn1)C(C)C)C(=O)NO)c1ccc(F)c(C)c1` [Compound 58, (S)-6-(((R)-1-(5-chloropyridin-2-yl)-2-methylpropyl)amino)-2-((R)-2-(4-fluoro-3-methylphenyl)-2-methoxyethyl)-N-hydroxyhexanamide] gave a Ki of 2.3 nM.
